Source: patent US10654814B2, “Bicyclic hydroxamic acids useful as inhibitors of mammalian histone deacetylase activity” (KANCERA AB, priority 2015, dated 2020)
Counter-ions that a name gives are not always drawn. Like-named read-outs stand apart in the source and are kept apart here.

What was measured:
HDAC2 = HDAC2 (Homo sapiens (Human), UniProt Q92769); assay: HDAC2 in vitro enzymatic assay (fluorescence); type: biochemical; settings: Table 4 selectivity profiling
Method: (§1) Biological Tests Method for Measurement of Enzymatic Activity of HDACs Materials & Methods
(§2) All Examples were tested in HDAC1,2,3,6 and 8 in vitro enzymatic assays. The assay principle is well known (Hauser et al. 2009, Bradner et al. 2010) and all necessary reagents like enzymes, substrates, developer and reference compounds are commercially available (see e.g. BPS Biosciences http://www.bpsbioscience.com/). Stock solutions (10 mM in DMSO) of compounds were serially diluted 1:3 in 11 concentrations with a top concentration of 200 μM for HDAC1,2,3 and 2 μM for HDAC6 and HDAC8. The enzymatic reactions were conducted in a mixture containing assay buffer, bovine serum albumin, HDAC substrate, and a test compound. After enzymatic reaction, developer was added and after an additional incubation time, fluorescence intensity was measured at an excitation wavelength of 360 nm and an emission wavelength of 460 nm. All experiments were performed in duplicate.

HDAC1 = HDAC1 (Homo sapiens (Human), UniProt Q13547); assay: HDAC1 in vitro enzymatic assay (fluorescence); type: biochemical; settings: Table 4 selectivity profiling
Method: as §1, §2

HDAC6 = HDAC6 (Homo sapiens (Human), UniProt Q9UBN7); assay: HDAC6 in vitro enzymatic assay (fluorescence); type: biochemical
In short: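 Fluorogenic HDAC substrate reactions contained assay buffer, BSA and compound, followed by developer. Fluorescence was read at ex 360/em 460 nm. Compounds were tested as 11-point 1:3 dilutions from a top of 200 μM for HDAC1, 2 and 3, and from 2 μM for HDAC6, in duplicate.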

HDAC8 = HDAC8 (Homo sapiens (Human), UniProt Q9BY41); assay: HDAC8 in vitro enzymatic assay (fluorescence); type: biochemical; settings: Table 4 selectivity profiling
Method: as §1, §2

HDAC3 = HDAC3 (Homo sapiens (Human), UniProt O15379); assay: HDAC3 in vitro enzymatic assay (fluorescence); type: biochemical; settings: Table 4 selectivity profiling
Method: as §1, §2

[1] = tested on: AMO-1 (plasmacytoma) cells; assay: CellTiter-Blue cell viability assay, AMO-1; type: cell-based; settings: Homo sapiens, AMO1; 72 hours of treatment
Method: (§3) Method for Measurement of Cell Viability
(§4) The CellTiter-Blue® Cell Viability Assay (Promega) provides a homogeneous, fluorometric method for estimating the number of viable cells present in multi-well plates. The assay uses the indicator dye resazurin to measure the metabolic capacity of cells. Viable cells retain the ability to reduce resazurin into resorufin, which is highly fluorescent.
(§5) Stock solutions (10 mM in DMSO) of compounds were serially diluted 1:2 in 11 concentrations. 50 nL/well (10 mM compound stock in DMSO) was acoustically dispensed in 384-well assay plates with an acoustic dispenser (EDC Biosystems ATS-100AV). Final starting concentration in the assay was 20 μM (0.2% DMSO) for test compounds. The following cell-lines (and origin) have been primarily used: PaCa2 (pancreatic), U266 (multiple myeloma), AMO-1 (plasmacytoma), and MDA-MB-231 (breast adenocarcinoma). PBMCs (peripheral blood mononuclear cells) from healthy donors were used as control cells. Cells were seeded in assay plates (384-well black/clear, Greiner #781091) pre-dispensed with compounds, 25 μL/well, and cultured for 72 hours. After 72 hours, Celltiter Blue reagent (Promega # G8081) was diluted 1:10 with PBS and then added to wells (5 μL/well). The plates were incubated for 2 hours following addition of reagent. The plates were read in an EnVision fluorescence reader (PerkinElmer) with Ex544 nm/Em590 nm. Results were calculated as % cell viability compared to background (cells treated with 0.2% DMSO).

[2] = tested on: U266 (multiple myeloma) cells; assay: CellTiter-Blue cell viability assay, U266; type: cell-based; settings: Homo sapiens, U-266; 72 hours of treatment
Method: as §3, §4, §5

[3] = tested on: MDA-MB-231 (breast adenocarcinoma) cells; assay: CellTiter-Blue cell viability assay, MDA-MB-231; type: cell-based; settings: Homo sapiens, 72 hours of treatment
Method: as §3, §4, §5

PaCa2 (pancreatic) cells = assay: CellTiter-Blue cell viability assay, PaCa2; type: cell-based; settings: PaCa-2; 72 hours of treatment
Method: as §3, §4, §5

[4] = tested on: PBMCs (peripheral blood mononuclear cells) from healthy donors; assay: CellTiter-Blue cell viability assay, healthy PBMC; type: cell-based; settings: 72 hours of treatment
Method: as §3, §4, §5

[5] = Table 3, read-out: IC50 (nM) for inhibition of HDAC6
[6] = Table 4 selectivity profiling, read-out: IC50 (nM) HDAC6

Sequence of HDAC8 (Q9BY41 whole entry): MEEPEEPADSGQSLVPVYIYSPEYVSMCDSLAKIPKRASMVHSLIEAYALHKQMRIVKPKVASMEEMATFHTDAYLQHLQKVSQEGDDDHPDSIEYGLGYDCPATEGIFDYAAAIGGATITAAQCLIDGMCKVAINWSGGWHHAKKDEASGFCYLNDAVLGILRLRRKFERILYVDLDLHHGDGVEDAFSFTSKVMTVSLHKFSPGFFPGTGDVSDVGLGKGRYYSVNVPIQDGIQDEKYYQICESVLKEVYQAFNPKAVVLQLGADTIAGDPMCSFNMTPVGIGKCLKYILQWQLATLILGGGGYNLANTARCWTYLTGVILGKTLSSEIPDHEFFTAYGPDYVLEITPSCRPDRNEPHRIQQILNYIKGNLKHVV
Sequence of HDAC1 (Q13547 whole entry): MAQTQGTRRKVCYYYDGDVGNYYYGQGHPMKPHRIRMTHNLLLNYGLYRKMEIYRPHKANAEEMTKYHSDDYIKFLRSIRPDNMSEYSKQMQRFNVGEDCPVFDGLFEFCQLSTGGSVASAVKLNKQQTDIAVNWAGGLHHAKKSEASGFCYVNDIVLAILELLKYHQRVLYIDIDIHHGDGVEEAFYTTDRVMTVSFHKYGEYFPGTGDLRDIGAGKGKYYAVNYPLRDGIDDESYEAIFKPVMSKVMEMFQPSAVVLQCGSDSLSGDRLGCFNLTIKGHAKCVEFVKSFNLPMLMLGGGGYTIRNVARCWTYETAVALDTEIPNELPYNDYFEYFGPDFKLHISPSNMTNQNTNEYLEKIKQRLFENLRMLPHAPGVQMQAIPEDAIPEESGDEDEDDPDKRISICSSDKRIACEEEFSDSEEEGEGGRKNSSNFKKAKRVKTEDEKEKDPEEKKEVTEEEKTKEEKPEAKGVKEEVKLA
Sequence of HDAC3 (O15379 whole entry): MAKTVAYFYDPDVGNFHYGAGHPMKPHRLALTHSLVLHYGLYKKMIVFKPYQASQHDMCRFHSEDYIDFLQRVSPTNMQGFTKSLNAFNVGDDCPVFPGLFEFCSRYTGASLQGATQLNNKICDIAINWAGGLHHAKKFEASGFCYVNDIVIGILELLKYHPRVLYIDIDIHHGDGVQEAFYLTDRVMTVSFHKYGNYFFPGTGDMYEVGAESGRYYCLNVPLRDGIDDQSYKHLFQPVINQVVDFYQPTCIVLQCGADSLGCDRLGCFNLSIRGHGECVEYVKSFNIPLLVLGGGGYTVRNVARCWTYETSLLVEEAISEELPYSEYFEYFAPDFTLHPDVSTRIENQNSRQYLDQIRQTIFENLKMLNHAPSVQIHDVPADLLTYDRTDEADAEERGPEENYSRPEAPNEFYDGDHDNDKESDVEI
Sequence of HDAC3 (Q9Y618 395-489 partner): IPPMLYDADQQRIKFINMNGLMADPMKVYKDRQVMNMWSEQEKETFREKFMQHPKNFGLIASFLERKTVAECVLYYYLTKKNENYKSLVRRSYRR
Sequence of HDAC2 (Q92769 whole entry): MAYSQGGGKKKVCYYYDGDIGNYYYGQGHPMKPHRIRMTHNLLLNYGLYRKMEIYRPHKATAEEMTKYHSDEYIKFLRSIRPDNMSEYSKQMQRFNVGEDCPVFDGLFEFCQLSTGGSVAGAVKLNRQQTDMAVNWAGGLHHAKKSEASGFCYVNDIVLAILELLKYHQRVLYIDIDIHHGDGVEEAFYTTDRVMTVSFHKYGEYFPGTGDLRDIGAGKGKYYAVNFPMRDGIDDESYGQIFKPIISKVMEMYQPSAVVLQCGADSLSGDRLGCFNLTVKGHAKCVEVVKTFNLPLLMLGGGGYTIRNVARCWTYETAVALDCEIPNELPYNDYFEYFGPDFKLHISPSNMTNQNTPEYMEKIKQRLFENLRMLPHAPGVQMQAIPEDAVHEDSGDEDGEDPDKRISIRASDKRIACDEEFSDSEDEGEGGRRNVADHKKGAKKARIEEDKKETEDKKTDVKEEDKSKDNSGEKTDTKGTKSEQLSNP
Sequence of HDAC6 (Q9UBN7 whole entry): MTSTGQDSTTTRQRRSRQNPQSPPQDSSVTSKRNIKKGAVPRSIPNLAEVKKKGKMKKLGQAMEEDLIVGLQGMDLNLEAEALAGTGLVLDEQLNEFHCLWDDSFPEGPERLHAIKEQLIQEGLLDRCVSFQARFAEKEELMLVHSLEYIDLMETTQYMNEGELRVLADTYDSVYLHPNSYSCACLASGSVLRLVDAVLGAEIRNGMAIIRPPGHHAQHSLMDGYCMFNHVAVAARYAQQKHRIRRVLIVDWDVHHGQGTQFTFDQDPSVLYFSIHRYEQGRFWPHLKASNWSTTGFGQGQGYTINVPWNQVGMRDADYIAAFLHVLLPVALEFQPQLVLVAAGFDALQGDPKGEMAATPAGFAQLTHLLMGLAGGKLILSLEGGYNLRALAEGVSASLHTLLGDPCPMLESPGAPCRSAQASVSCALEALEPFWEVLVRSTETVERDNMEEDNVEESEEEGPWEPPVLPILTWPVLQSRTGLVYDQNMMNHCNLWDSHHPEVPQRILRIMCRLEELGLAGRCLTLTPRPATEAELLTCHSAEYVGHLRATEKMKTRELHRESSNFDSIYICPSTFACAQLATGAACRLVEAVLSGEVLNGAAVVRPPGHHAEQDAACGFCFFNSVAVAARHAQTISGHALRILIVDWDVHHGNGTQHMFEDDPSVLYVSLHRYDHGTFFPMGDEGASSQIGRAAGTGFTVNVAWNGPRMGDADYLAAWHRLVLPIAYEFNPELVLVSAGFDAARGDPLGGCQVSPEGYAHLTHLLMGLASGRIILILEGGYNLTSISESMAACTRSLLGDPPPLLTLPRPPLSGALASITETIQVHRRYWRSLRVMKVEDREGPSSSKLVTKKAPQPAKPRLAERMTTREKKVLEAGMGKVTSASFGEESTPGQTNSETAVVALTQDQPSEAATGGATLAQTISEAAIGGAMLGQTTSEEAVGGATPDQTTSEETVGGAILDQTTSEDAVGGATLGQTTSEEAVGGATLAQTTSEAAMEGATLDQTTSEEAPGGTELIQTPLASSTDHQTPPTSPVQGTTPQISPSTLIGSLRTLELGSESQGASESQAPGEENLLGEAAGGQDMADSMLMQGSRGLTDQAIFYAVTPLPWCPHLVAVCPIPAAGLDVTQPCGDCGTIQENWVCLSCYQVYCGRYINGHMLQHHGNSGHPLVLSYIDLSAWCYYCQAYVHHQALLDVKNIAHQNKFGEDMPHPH

| Structure (SMILES) | IC50 (HDAC2) | IC50 (HDAC1) | IC50 (HDAC6; [5]) | IC50 (HDAC6; [6]) | IC50 (HDAC8) | IC50 (HDAC3) | IC50 [1] | IC50 [2] | IC50 [3] | IC50 (PaCa2 (pancreatic) cells) | IC50 [4] |
| --- | --- | --- | --- | --- | --- | --- | --- | --- | --- | --- | --- |
| O=C(NO)c1ccc2oc(-c3ccccc3Cl)nc2c1 [Example 12, 2-(2-chlorophenyl)-N-hydroxy-1,3-benzoxazole-5-carboxamide] | 52000 nM | 1200 nM | 5 nM | 5 nM | 880 nM | 560 nM |  |  |  |  |  |
| O=C(NO)c1ccc2oc(-c3ccc(C(F)(F)F)cc3)nc2c1 [Example 18, N-hydroxy-2-[4-(trifluoromethyl)phenyl]-1,3-benzoxazole-5-carboxamide] | 11000 nM | 2000 nM |  | 37 nM | 1300 nM | 1600 nM |  |  |  |  |  |
| COc1ccncc1-c1ccc(-c2nc3cc(C(=O)NO)ccc3o2)cc1 [Example 26, N-hydroxy-2-[4-(4-methoxypyridin-3-yl)phenyl]-1,3-benzoxazole-5-carboxamide] |  |  | 5 nM |  |  |  | 0.61 µM | 1.1 µM | 1.7 µM | 1.1 µM | > 20 µM |
| O=C(NO)c1ccc2oc(-c3ccc(C4CC4)cc3)nc2c1 [Example 29, 2-(4-Cyclopropylphenyl)-N-hydroxy-1,3-benzoxazole-5-carboxamide] | 10000 nM | 2100 nM | 10 nM | 10 nM | 1400 nM | 1000 nM |  |  |  |  |  |
| CC(C)c1ccc(-c2cc3ccc(C(=O)NO)cc3[nH]2)cc1 [Example 59, N-Hydroxy-2-[4-(1-methylethyl)phenyl]-1H-indole-6-carboxamide] |  |  |  |  |  |  | 0.66 µM | 1.7 µM | 1.2 µM | 1.4 µM | > 20 µM |
| CC(C)c1ccc(-c2nc3ccc(C(=O)NO)cc3s2)cc1 [Example 61] |  |  |  |  |  |  | 0.81 µM | 1.1 µM | 1.8 µM | 0.9 µM | > 20 µM |
| O=C(NO)c1ccc2nc(-c3cccc4cccnc34)sc2c1 [Example 70, N-hydroxy-2-quinolin-8-yl-1,3-benzothiazole-6-carboxamide] | 19000 nM | 6100 nM |  | 65 nM | 320 nM | 2300 nM |  |  |  |  |  |
| O=C(NO)c1ccc2sc(-c3ccc(F)cc3)nc2c1 [Example 76, 2-(4-Fluorophenyl)-N-hydroxy-1,3-benzothiazole-5-carboxamide] | 6600 nM | 1500 nM | 18 nM | 18 nM | 340 nM | 450 nM |  |  |  |  |  |
| O=C(NO)c1ccc2sc(-c3cccc(C(F)(F)F)c3)cc2c1 [Example 90, N-hydroxy-2-[3-(trifluoromethyl)phenyl]-1-benzothiophene-5-carboxamide] |  |  | 28 nM |  |  |  | 0.5 µM | 0.58 µM | 0.81 µM | 0.8 µM | > 20 µM |
| O=C(NO)c1ccc2sc(-c3cccnc3)cc2c1 [Example 96, N-hydroxy-2-pyridin-3-yl-1-benzothiophene-5-carboxamide] | 55000 nM | 9700 nM | 64 nM | 64 nM | 960 nM | 7200 nM |  |  |  |  |  |
| Cc1noc(C)c1-c1cc2cc(C(=O)NO)ccc2s1 [Example 100, 2-(3,5-dimethylisoxazol-4-yl)-N-hydroxy-1-benzothiophene-5-carboxamide] | 74000 nM | 14000 nM | 36 nM | 36 nM | 760 nM | 18000 nM |  |  |  |  |  |
| O=C(NO)c1ccc2sc(-c3ccc(OC(F)(F)F)cc3)cc2c1 [Example 102, N-hydroxy-2-[4-(trifluoromethoxy)phenyl]-1-benzothiophene-5-carboxamide] |  |  | 70 nM |  |  |  | 0.47 µM | 0.64 µM | 0.41 µM | 2.48 µM | > 20 µM |
| CC(C)(C)c1ccc(-c2cc3cc(C(=O)NO)ccc3s2)cc1 [Example 103, 2-(4-tert-butylphenyl)-N-hydroxy-1-benzothiophene-5-carboxamide] |  |  |  |  |  |  | 0.49 µM | 0.55 µM | 0.6 µM | 1.46 µM | > 20 µM |
| CCN(CC)Cc1cc2ccc(C(=O)NO)cc2o1 [Example 117, 2-[(Diethylamino)methyl]-N-hydroxy-1-benzofuran-6-carboxamide trifluoroacetate] | 69000 nM | 19000 nM | 64 nM | 26 nM | 1400 nM | 25000 nM |  |  |  |  |  |
| CN(C)Cc1ccc(-c2cc3ccc(C(=O)NO)cc3o2)cc1 [Example 283, 2-{4-[(dimethylamino)methyl]phenyl}-N-hydroxy-1-benzofuran-6-carboxamide trifluoroacetate] |  |  | 7 nM |  |  |  |  |  |  |  |  |

Further lines, with some results ahead:

| IC50 (HDAC2) | IC50 (HDAC1) | IC50 (HDAC6; [5]) | IC50 (HDAC6; [6]) | IC50 (HDAC8) | IC50 (HDAC3) | IC50 [1] | IC50 [2] | IC50 [3] | Structure (SMILES) | IC50 (PaCa2 (pancreatic) cells) | IC50 [4] |
| --- | --- | --- | --- | --- | --- | --- | --- | --- | --- | --- | --- |
|  |  |  |  |  |  | 0.37 µM | 0.42 µM | 0.42 µM | CC(C)Oc1ccc(-c2cc3cc(C(=O)NO)ccc3s2)cc1Cl [Example 107, 2-[3-chloro-4-(1-methylethoxy)phenyl]-N-hydroxy-1-benzothiophene-5-carboxamide] | 1.3 µM | > 20 µM |
|  |  |  |  |  |  | 0.67 µM | 0.67 µM | 1.2 µM | CC(C)c1ccc(-c2cc3cc(C(=O)NO)ccc3o2)cc1 [Example 111, N-Hydroxy-2-[4-(1-methylethyl)phenyl]-1-benzofuran-5-carboxamide] | 1.3 µM | > 20 µM |
| 2000 nM | 500 nM | 22 nM | 22 nM | 120 nM | 330 nM |  |  |  | CC(C)c1ccc(-c2cc3cc(C(=O)NO)cnc3o2)cc1 [Example 113, N-Hydroxy-2-[4-(1-methylethyl)phenyl]furo[2,3-b]pyridine-5-carboxamide] |  |  |
| 24000 nM | 1200 nM | 17 nM | 17 nM | 240 nM | 370 nM |  |  |  | O=C(NO)c1ccc2nc(Nc3cccc(OCc4ccccc4)c3)[nH]c2c1 [Example 132, 2-((3-(benzyloxy)phenyl)amino)-N-hydroxy-1H-benzo[d]imidazole-6-carboxamide] |  |  |
| 3500 nM | 550 nM | 7 nM | 7 nM | 1500 nM | 320 nM |  |  |  | O=C(NO)c1ccc2oc(COc3cccc(F)c3)cc2c1 [Example 162, 2-[(3-Fluorophenoxy)methyl]-N-hydroxy-1-benzofuran-5-carboxamide] |  |  |
| > 200000 nM | > 200000 nM |  | 16 nM | 384 nM | 960 nM |  |  |  | COc1ccc(-c2ccc(-c3nc4cc(C(=O)NO)ccc4o3)c(F)c2)cn1 [Example 176, 2-[2-fluoro-4-(6-methoxypyridin-3-yl)phenyl]-N-hydroxy-1,3-benzoxazole-5-carboxamide] |  |  |
|  |  |  |  |  |  | 2.3 µM | 1.2 µM | 0.98 µM | COc1ccc(F)cc1-c1ccc(-c2nc3cc(C(=O)NO)ccc3o2)c(F)c1 [Example 193, 2-(3,5′-difluoro-2′-methoxybiphenyl-4-yl)-N-hydroxy-1,3-benzoxazole-5-carboxamide] | 2.2 µM | > 20 µM |
|  |  | 4 nM |  |  |  |  |  |  | O=C(NO)c1ccc2cc(-c3cccc(O)c3)oc2c1 [Example 284, N-hydroxy-2-(3-hydroxypheny)-1-benzofuran-6-carboxamide] |  |  |
| 6900 nM | 470 nM | 4 nM | 4 nM | 210 nM | 640 nM |  |  |  | COc1cccc(-c2cc3ccc(C(=O)NO)cc3o2)c1 [Example 285, N-hydroxy-2-(3-methoxyphenyl)-1-benzofuran-6-carboxamide] |  |  |
